Read-outs that look alike come from different tables or passages of the source.
How the values were obtained:
[1] = tested on: UTI; set-up: method as in PMID 38376151; conditions: in vivo ascending UTI prophylaxis model; cited from earlier work
[2] = tested on: UPEC strain CFT073; assay: Antimicrobial susceptibility assay, UPEC grown in MOPS-glycerol; assay type: cell-based, Escherichia coli; conditions: for MIC: Escherichia coli; for MIC / MIC MOPS-glycerol: UPEC CFT073 grown in MOPS-glycerol, 24 h, ± standard error; for fold increase in MIC (less potent) compared with 1 / activity against UPEC, highest concentration without activity: MOPS-glycerol
From the text: (§1) Unless otherwise noted, all reagents were obtained from commercial sources. BAP, 1, and N5-Pan analogs were synthesized according to previously reported procedures ([31], [53]). Urine was self-collected from adult males and females (not menstruating) between 24 and 57 years old (recruitment was open to donors 18–65 years old), who had not used anti-infectives or cranberry products for at least 7 days prior to collection. The collection protocol was approved by the Johns Hopkins University Institutional Review Boards under IRB study NA_00085130. Informed, written consent was obtained from all participants prior to collection. Urine was collected from at least 7 participants over 14 days, stored at 4°C upon collection, and then pooled, filter-sterilized, and frozen at −20°C. Urine Batch A included five male and three female donors with an average age of 33 years (range: 24–57). Urine Batch B included four male and five female donors with an average age of 26 years (range: 24–43). Samples from two donors (donations made at least 30 days apart) were included in both Batch A and Batch B. Urine Batch C included four male and three female donors with an average age of 27 years (range: 24–36). Urine Batch D included four male and three female donors with an average age of 27 years (range: 25–35). Solid urine agar plates were prepared by supplementing cooled 1.5% (wt/vol) agar with filter-sterilized urine in a 4:1 ratio. Liquid MOPS-glycerol was prepared by adding 10 × 3-(N-morpholino)propanesulfonic acid (MOPS) Buffer (Teknova) to water to a final 1× concentration, 1.32 mM K2HPO4, and 0.4% (vol/vol) glycerol and then filter-sterilizing. Unless otherwise noted, all media were supplemented with freshly prepared 20 µM FeSO4. OD600 analyses were performed on Mettler-Toledo UV5Bio UV/Visible spectrophotometer (Columbus, Ohio, USA). For antimicrobial studies, uropathogenic E. coli strain CFT073 (ATCC: BAA-2503) was provided by Kevin Schwartz from the lab of Rodney Welch. All manipulation of UPEC was conducted in a certified biosafety level 2 (BSL-2) laboratory while using BSL-2-associated safety procedures. Antimicrobial data were collected on a Biotek Epoch 2 microplate reader or a Biotek Synergy Neo 2 microplate reader. For metabolic stability studies, losartan potassium (PHR1602), used as an internal standard, was bought from Millipore Sigma (Burlington, MA). Methanol (A456-4) and acetonitrile (A955-4) were purchased from Fisher Chemical (Pittsburgh, PA). Water (9831-03) was purchased from JT Baker (Philipsburg, NJ). Dimethyl sulfoxide (DMSO)(154938-500mL) was purchased from Sigma Aldrich (St. Louis, MO). Mouse plasma (WT) was purchased from Innovative Research (Novi, MI). Mouse liver microsomes (M1000) were purchased from XenoTech LLC (Kansas City, KS).
(§2) All antimicrobial susceptibility assays were conducted as previously described using an aseptic technique with some modification ([7]). Briefly, 3–5 isolated colonies of CFT073 on LB agar or pooled urine agar were inoculated into 3 mL of liquid MOPS-glycerol medium or pooled urine, respectively, and grown overnight with shaking at 37°C. Saturated cultures were diluted 1:50 in fresh medium and grown to an OD600 of 0.4. These exponential phase cultures were then diluted 1:1,000 into fresh medium to yield the experimental inoculum, which was mixed 1:1 with medium containing 1 or N5-Pan analog at twice the desired final concentration in 96-well plates. The final concentration of bacteria in each well was approximately 10^5 CFU/mL in a final volume of 200 µL. The concentration ranges of compounds evaluated in MOPS-glycerol were: 1 (0–312.5 μM), 2 (0–100 μM), 3 (0–500 μM), 4–5 (0–2,000 μM), 6–7 (0–100 μM), and 8–12 (0-2,000 μM). Analogs 1, 6, and 7 were evaluated over a range of 0–4,000 μM in four batches of pooled human urine. The OD600 was monitored for 24 h (MOPS-glycerol) or 16 h (pooled urine) at 37°C with periodic shaking. […]

[3] = tested on: E. coli; set-up: method as in PMID 29332383; conditions: cited from earlier work
[4] = tested on: serum pantetheinases; conditions: cited from earlier work
[5] = Stability in mouse liver homogenate; assay type: in vitro ADME
Protocol: (§3) Stability studies were conducted in mouse liver microsomes, mouse liver tissue homogenate, and CD1 mouse plasma as previously described with minor modifications ([54][–][56]). Briefly, for Phase I mouse liver microsome stability, reactions were carried out with 200 mM potassium phosphate buffer, pH 7.4, with or without an NADPH-regenerating system (1.3 mM NADPH, 3.3 mM glucose 6-phosphate, 3.3 mM MgCl2, 0.4 U/mL glucose-6-phosphate dehydrogenase, and 50 µM sodium citrate). Reactions, in triplicate, were initiated by the addition of liver microsomes to the incubation mixture (compound final concentration was 1 µM; 0.2 mg/mL microsomes) and incubated at 37°C for the desired incubation time. For liver stability, the tissue homogenate was prepared by washing tissues with diluted 10-fold 0.1 M potassium phosphate buffer and homogenized using a probe sonicator over ice. To evaluate the stability of the drugs over time, each of the crude homogenates was aliquoted to 1 mL and then spiked with a final assay concentration of 10 µM of each drug, followed by incubation in an orbital shaker at 37°C for 1 h (in triplicate). For plasma stability, 1 mL of plasma was spiked with 10 µM of each drug, followed by incubation in an orbital shaker at 37°C for 1 h (in triplicate). Samples from each metabolism study were quenched with 3× volume of acetonitrile containing internal standard (losartan: 0.5 µM) at the desired incubation times. […] Samples were vortex-mixed for 30 s and centrifuged at 10,000 × g for 10 min at 4°C. Compound disappearance over time was monitored using a Dionex ultra-high-performance liquid chromatography system consisting of an analytical pump and an autosampler coupled with Q Exactive Focus orbitrap mass spectrometer (Thermo Fisher Scientific Inc., Waltham MA). […] The mobile phase used was composed of 0.1% formic acid in water and 0.1% formic acid in acetonitrile with gradient elution. The total run time for each analyte was 5 min.
(§4) The mass spectrometer was operated with a HESI ion source in positive ionization mode where compounds were identified in the full scan mode (from m/z 75.00–1125.00) and controlled by the Xcalibur software 4.0.27.13 (Thermo Scientific). Data were acquired using Xcalibur software. Drugs were identified in the full-scan mode (from m/z 75.00 to 1125.00) by comparing t = 0 samples with t = 30 or 60 min samples, and structures were proposed based on the accurate mass information. The percentage of compound remaining for pantothenamides 1, 6, and 7 was determined from the analyte/internal standard (IS) area ratios obtained at t = 30 or 60 min relative to the mean ratios obtained at t = 0 min and calculated using equation 1:
(§5) % Remaining=(Peak area of Analyte/Preak area of ISat t=30 or 60 min/MeanPeak area of Analyte/Peak area of ISat t=0 min)×100

[6] = Phase I metabolic stability in mouse liver microsomes; assay type: in vitro ADME; conditions: for remaining at 1 h, 1 µM: mouse, liver microsomes, pH 7.4, 1 h, 1 µM compound, 0.2 mg/mL microsomes
Protocol: as §3, §4, §5

[7] = Stability in mouse plasma; assay type: in vitro ADME
Protocol: as §3, §4, §5

[8] = tested on: UPEC strain CFT073; assay: Antimicrobial susceptibility assay, UPEC grown in pooled human urine; assay type: cell-based, Escherichia coli
From the text: as §1, §2

In the case of CCCCOP(=O)(O)C(C)=O [BAP, butylacetylphosphonate], the “protection of mice against UTI” value [1] is given as “partially protects”.

In the case of CCCCNC(=O)CCNC(=O)[C@H](O)C(C)(C)CO [compound 2], the MIC [2] is reported as 4 µM and the “MIC MOPS-glycerol” value [2] is reported as 4 ± 1 µM.

In the case of CCCCCCCNC(=O)CCNC(=O)[C@H](O)C(C)(C)CO [compound 3], the MIC [2] is reported as 26 µM, the “fold increase in MIC (less potent) compared with 1” value [2] is reported as ~ 10 fold and the “MIC MOPS-glycerol” value [2] is reported as 26 ± 5 µM.

In the case of CCCCCN(C)C(=O)CCNC(=O)[C@H](O)C(C)(C)CO [compound 4, N-methyl N5-Pan], the MIC [2] is reported as over 2000 µM and the “activity against UPEC, highest concentration without activity” value [2] is reported as over 2 mM.

In the case of CCCCCCCN(C)C(=O)CCNC(=O)[C@H](O)C(C)(C)CO [compound 5, N-methyl N7-Pan], the “activity against E. coli” value [3] is given as “inactive”, the MIC [2] is given as over 2000 µM and the “activity against UPEC, highest concentration without activity” value [2] is given as “similarly inactive”. For the same molecule, the pantetheinase resistance [4] was “pantetheinase-resistant”.

With CCCCCC(=O)NCCNC(=O)[C@H](O)C(C)(C)CO [compound 7] the “% remaining in mouse liver homogenate” value ([5]; 1 h, 10% wt/vol homogenate, 10 µM compound, 37°C) was “no degradation”, the “stability in mouse liver homogenate” value ([5]; n = 3) was “good stability” and the MIC [2] was 12.5 µM. For the same molecule, the “MIC MOPS-glycerol” value [2] was 12.5 ± 0.00 µM, the “stability in the presence of serum pantetheinases” value [4] was “stable” and the remaining at 1 h, 1 µM ([6]; with NADPH, read-out: % remaining in mouse liver microsomes, presence of NADPH) was 87%. For the same molecule, the remaining at 1 h, 1 µM ([6]; without NADPH, read-out: % remaining in mouse liver microsomes, absence of NADPH) was 87%, the “stability in mouse liver microsomes” value ([6]; n = 3) was “good stability” and the remaining at 1 h, 10 µM ([7]; CD1, mouse, plasma, 1 h, 10 µM compound, 37°C) was 93%. For the same molecule, the “stability in mouse plasma” value ([7]; n = 3) was “good stability”, the MIC ([8]; Escherichia coli, UPEC CFT073, all urine batches A-D, read-out: MIC across four batches of pooled urine) was at least 4000 µM and the MIC ([8]; UPEC CFT073, urine batch A, read-out: MIC in pooled human urine, urine batch A) was over 4000 µM. It also gave an MIC ([8]; UPEC CFT073, urine batch B, read-out: MIC in pooled human urine, urine batch B) of 4000 µM.

With CC(C)(CO)[C@@H](O)C(=O)NCCC(=O)NCc1ccccn1 [compound 8] the MIC [2] was 68 µM, the “fold increase in MIC (less potent) compared with 1” value [2] was ~ 28 fold and the “MIC MOPS-glycerol” value [2] was 68 ± 32 µM.

With CC(C)(CO)[C@@H](O)C(=O)NCCC(=O)NCc1cccnc1 [compound 9] the MIC [2] was 2000 µM.

In the case of CC(C)(CO)[C@@H](O)C(=O)NCCC(=O)NCc1ccncc1 [compound 10], the MIC [2] is reported as over 2000 µM.

Work on CC(NC(=O)CCNC(=O)[C@H](O)C(C)(C)CO)c1cccnc1 (some centres unmarked) [compound 11] yielded an MIC [2] of over 2000 µM.

With CN(Cc1cccnc1)C(=O)CCNC(=O)[C@H](O)C(C)(C)CO [compound 12] the MIC [2] was over 2000 µM.

Source: publication PMC12323621, “Exploring the antimicrobial activity of pantothenamides against uropathogenic Escherichia coli” (Microbiology Spectrum, 2025)
